Results taken from ChEMBL document CHEMBL1201861, “Genomics of Drug Sensitity in Cancer screening data, Wellcome Trust Sanger Institute”.

Columns and labels:
COR-L279 = experiment: SANGER: Inhibition of human COR-L279 cell growth in a cell viability assay.; assay type: functional, cell-based
CPC-N = experiment: cells; assay type: functional, cell-based; conditions: Homo sapiens;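 also: growth inhibition of CPC-N cells, with a cell viability assay as the readout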
Description: SANGER: Inhibition of human CPC-N cell growth in a cell viability assay.

DU-145 = experiment: cells; assay type: functional, cell-based, Homo sapiens; conditions: Homo sapiens, DU-145
Description: SANGER: Inhibition of human DU-145 cell growth in a cell viability assay.

HN = experiment: cells; assay type: functional, cell-based, Homo sapiens; conditions: Homo sapiens, HN
Description: SANGER: Inhibition of human HN cell growth in a cell viability assay.

HuO9 = experiment: cells; assay type: functional, cell-based, Homo sapiens; conditions: Homo sapiens, HuO9;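 also: growth inhibition of HuO9 cells, read out with a cell viability assay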
Description: SANGER: Inhibition of human HuO9 cell growth in a cell viability assay.

IST-SL2 = experiment: cells; assay type: functional, cell-based; conditions: Homo sapiens;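 also: growth inhibition of human IST-SL2 cells, read out by a cell viability assay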
Description: SANGER: Inhibition of human IST-SL2 cell growth in a cell viability assay.

JIYOYE = experiment: cells; assay type: functional, cell-based; conditions: Homo sapiens
Description: SANGER: Inhibition of human JiyoyeP-2003 cell growth in a cell viability assay.

KNS-81-FD = experiment: cells; assay type: functional, cell-based, Homo sapiens; conditions: Homo sapiens, KNS-81-FD;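 also: growth inhibition of KNS-81-FD cells, read out with a cell viability assay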
Description: SANGER: Inhibition of human KNS-81-FD cell growth in a cell viability assay.

L-540 = experiment: cells; assay type: functional, cell-based; conditions: Homo sapiens;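 also: growth inhibition of the human L-540 cell line, read out with a viability assay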
Description: SANGER: Inhibition of human L-540 cell growth in a cell viability assay.

LAMA-84 = experiment: cells; assay type: functional, cell-based; conditions: Homo sapiens;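 also: growth inhibition of LAMA-84 cells, read out with a cell viability assay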
Description: SANGER: Inhibition of human LAMA-84 cell growth in a cell viability assay.

LAN-6 = experiment: cells; assay type: functional, cell-based, Homo sapiens; conditions: Homo sapiens, LAN-6;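 also: growth inhibition of LAN-6 cells, determined with a cell viability assay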
Description: SANGER: Inhibition of human LAN-6 cell growth in a cell viability assay.

LB996-RCC = experiment: cells; assay type: functional, cell-based; conditions: Homo sapiens
Description: SANGER: Inhibition of human LB996-RCC cell growth in a cell viability assay.

LU-165 = experiment: cells; assay type: functional, cell-based; conditions: Homo sapiens
Description: SANGER: Inhibition of human LU-165 cell growth in a cell viability assay.

NALM-6 = experiment: cells; assay type: functional, cell-based; conditions: Homo sapiens;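 also: growth inhibition of NALM-6 cells, read out with a cell viability assay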
Description: SANGER: Inhibition of human NALM-6 cell growth in a cell viability assay.

NCCIT = experiment: SANGER: Inhibition of human NCCIT cell growth in a cell viability assay.; assay type: functional, cell-based
NCI-H1092 = experiment: cells; assay type: functional, cell-based; conditions: Homo sapiens
Description: SANGER: Inhibition of human NCI-H1092 cell growth in a cell viability assay.

NCI-H1304 = experiment: cells; assay type: functional, cell-based; conditions: Homo sapiens;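 also: growth inhibition of the cancer cell line, measured in a cell viability assay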
Description: SANGER: Inhibition of human NCI-H1304 cell growth in a cell viability assay.

NCI-H1417 = experiment: cells; assay type: functional, cell-based; conditions: Homo sapiens;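 also: human NCI-H1417 cells, growth inhibition determined with a cell viability readout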
Description: SANGER: Inhibition of human NCI-H1417 cell growth in a cell viability assay.

NCI-H1436 = experiment: cells; assay type: functional, cell-based; conditions: Homo sapiens;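 also: growth suppression of human NCI-H1436 cells, determined with a cell viability readout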
Description: SANGER: Inhibition of human NCI-H1436 cell growth in a cell viability assay.

NCI-H1648 = experiment: cells; assay type: functional, cell-based, Homo sapiens; conditions: Homo sapiens, NCI-H1648;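 also: cell viability assay measuring inhibition of NCI-H1648 cell growth, from the Sanger screening data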
Description: SANGER: Inhibition of human NCI-H1648 cell growth in a cell viability assay.

NCI-H187 = experiment: cells; assay type: functional, cell-based; conditions: Homo sapiens;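 also: growth inhibition of NCI-H187 cells, read out as cell viability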
Description: SANGER: Inhibition of human NCI-H187 cell growth in a cell viability assay.

NCI-H2141 = experiment: cells; assay type: functional, cell-based; conditions: Homo sapiens;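 also: growth inhibition of human NCI-H2141 cells, read out with a cell viability assay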
Description: SANGER: Inhibition of human NCI-H2141 cell growth in a cell viability assay.

NCI-H2171 = experiment: cells; assay type: functional, cell-based; conditions: Homo sapiens;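 also: growth inhibition of human NCI-H2171 cells, read out by a cell viability assay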
Description: SANGER: Inhibition of human NCI-H2171 cell growth in a cell viability assay.

NCI-H2405 = experiment: cells; assay type: functional, cell-based, Homo sapiens; conditions: Homo sapiens, NCI-H2405;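 also: growth inhibition of the human cell line, read out with a cell viability assay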
Description: SANGER: Inhibition of human NCI-H2405 cell growth in a cell viability assay.

NCI-H345 = experiment: cells; assay type: functional, cell-based; conditions: Homo sapiens;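 also: growth inhibition of NCI-H345 cells measured with a cell viability assay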
Description: SANGER: Inhibition of human NCI-H345 cell growth in a cell viability assay.

NCI-H524 = experiment: cells; assay type: functional, cell-based; conditions: Homo sapiens;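 also: growth inhibition of human NCI-H524 cells, read out through a cell viability assay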
Description: SANGER: Inhibition of human NCI-H524 cell growth in a cell viability assay.

NCI-H716 = experiment: cells; assay type: functional, cell-based; conditions: Homo sapiens;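 also: growth inhibition of human NCI-H716 cells, measured by a cell viability assay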
Description: SANGER: Inhibition of human NCI-H716 cell growth in a cell viability assay.

NCI-H748 = experiment: cells; assay type: functional, cell-based; conditions: Homo sapiens;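 also: growth inhibition of NCI-H748 cells, measured by a cell viability assay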
Description: SANGER: Inhibition of human NCI-H748 cell growth in a cell viability assay.

NCI-H810 = experiment: cells; assay type: functional, cell-based, Homo sapiens; conditions: Homo sapiens, NCI-H810;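 also: IC50 reflects inhibition of cancer cell line growth, read out with a cell viability assay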
Description: SANGER: Inhibition of human NCI-H810 cell growth in a cell viability assay.

NCI-H82 = experiment: cells; assay type: functional, cell-based; conditions: Homo sapiens;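 also: growth inhibition of NCI-H82 cells, measured with a cell viability readout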
Description: SANGER: Inhibition of human NCI-H82 cell growth in a cell viability assay.

NCI-H889 = experiment: cells; assay type: functional, cell-based; conditions: Homo sapiens;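 also: cell growth inhibition of the cell line, read out with a viability assay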
Description: SANGER: Inhibition of human NCI-H889 cell growth in a cell viability assay.

SNU-16 = experiment: cells; assay type: functional, cell-based; conditions: Homo sapiens;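 also: growth inhibition of human SNU-16 cells, determined with a cell viability readout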
Description: SANGER: Inhibition of human NCI-SNU-16 cell growth in a cell viability assay.

NOMO-1 = experiment: cells; assay type: functional, cell-based; conditions: Homo sapiens;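 also: growth inhibition of human NOMO-1 cells measured by a cell viability assay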
Description: SANGER: Inhibition of human NOMO-1 cell growth in a cell viability assay.

OAW-28 = experiment: cells; assay type: functional, cell-based, Homo sapiens; conditions: Homo sapiens, OAW-28;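 also: growth inhibition of OAW-28 cells, read out with a cell viability assay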
Description: SANGER: Inhibition of human OAW-28 cell growth in a cell viability assay.

Panc1005 = experiment: cells; assay type: functional, cell-based, Homo sapiens; conditions: Homo sapiens, Panc1005;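 also: growth inhibition of human PANC-10-05 cells, measured by a cell viability assay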
Description: SANGER: Inhibition of human PANC-10-05 cell growth in a cell viability assay.

RPMI-6666 = experiment: cells; assay type: functional, cell-based; conditions: Homo sapiens
Description: SANGER: Inhibition of human RPMI-6666 cell growth in a cell viability assay.

RPMI 8402 = experiment: SANGER: Inhibition of human RPMI-8402 cell growth in a cell viability assay.; assay type: functional, cell-based
SCLC-21H = experiment: cells; assay type: functional, cell-based; conditions: Homo sapiens;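 also: growth inhibition of cultured human SCLC-21H cells, read out with a cell viability assay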
Description: SANGER: Inhibition of human SCLC-21H cell growth in a cell viability assay.

SJRH30 = experiment: cells; assay type: functional, cell-based; conditions: Homo sapiens;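 also: growth inhibition of human SJRH30 cells, read out with a cell viability assay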
Description: SANGER: Inhibition of human SJRH30 cell growth in a cell viability assay.

SNU-C1 = experiment: cells; assay type: functional, cell-based; conditions: Homo sapiens;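 also: growth inhibition of SNU-C1 human cells, read out by a cell viability assay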
Description: SANGER: Inhibition of human SNU-C1 cell growth in a cell viability assay.

SR = experiment: cells; assay type: functional, cell-based; conditions: Homo sapiens
Description: SANGER: Inhibition of human SR cell growth in a cell viability assay.

SW872 = experiment: cells; assay type: functional, cell-based, Homo sapiens; conditions: Homo sapiens, SW872;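 also: growth inhibition of SW872 cells, read out by a viability assay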
Description: SANGER: Inhibition of human SW872 cell growth in a cell viability assay.

SAOS-2 = experiment: cells; assay type: functional, cell-based, Homo sapiens; conditions: Homo sapiens, SAOS-2;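 also: growth inhibition of human Saos-2 cells determined by a cell viability assay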
Description: SANGER: Inhibition of human Saos-2 cell growth in a cell viability assay.

23132-87 = experiment: cells; assay type: functional, cell-based, Homo sapiens; conditions: Homo sapiens
Description: SANGER: Inhibition of human 23132-87 cell growth in a cell viability assay.

8505C = experiment: cells; assay type: functional, cell-based, Homo sapiens; conditions: Homo sapiens, 8505C
Description: SANGER: Inhibition of human 8505C cell growth in a cell viability assay.

A704 = experiment: cells; assay type: functional, cell-based, Homo sapiens; conditions: Homo sapiens, A704;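 also: growth inhibition of human A704 cells, read out with a cell viability assay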
Description: SANGER: Inhibition of human A704 cell growth in a cell viability assay.

ARH-77 = experiment: cells; assay type: functional, cell-based; conditions: Homo sapiens;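 also: growth inhibition of ARH-77 cells, read out by a cell viability assay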
Description: SANGER: Inhibition of human ARH-77 cell growth in a cell viability assay.

BL-41 = experiment: cells; assay type: functional, cell-based; conditions: Homo sapiens;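 also: growth inhibition of human BL-41 cells, read out with a cell viability assay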
Description: SANGER: Inhibition of human BL-41 cell growth in a cell viability assay.

CAL-148 = experiment: cells; assay type: functional, cell-based; conditions: Homo sapiens
Description: SANGER: Inhibition of human CAL-148 cell growth in a cell viability assay.

CAL-33 = experiment: cells; assay type: functional, cell-based, Homo sapiens; conditions: Homo sapiens, CAL-33;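 also: growth inhibition of CAL-33 cells, read out with a cell viability assay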
Description: SANGER: Inhibition of human CAL-33 cell growth in a cell viability assay.

CAL-62 = experiment: cells; assay type: functional, cell-based, Homo sapiens; conditions: Homo sapiens, CAL-62;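 also: growth inhibition of CAL-62 cells, read out with a cell viability assay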
Description: SANGER: Inhibition of human CAL-62 cell growth in a cell viability assay.

TE-441-T = experiment: cells; assay type: functional, cell-based; conditions: Homo sapiens
Description: SANGER: Inhibition of human TE-441-T cell growth in a cell viability assay.

CMK = experiment: cells; assay type: functional, cell-based; conditions: Homo sapiens;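 also: growth inhibition of CMK cells, read out as cell viability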
Description: SANGER: Inhibition of human CMK cell growth in a cell viability assay.

Molecule COc1cc([C@@H]2c3cc4c(cc3[C@@H](O[C@@H]3O[C@@H]5CO[C@@H](C)O[C@H]5[C@H](O)[C@H]3O)[C@H]3COC(=O)[C@H]23)OCO4)cc(OC)c1O [ETOPOSIDE] has an IC50 (COR-L279) of 1.27 µM, an IC50 (CPC-N) greater than 16 µM and an IC50 (DU-145) of 0.591 µM. It also gave an IC50 (HN) greater than 16 µM, an IC50 (HuO9) of 0.926 µM and an IC50 (IST-SL2) of 0.85 µM. It also gave an IC50 (JIYOYE) of 2.54 µM, an IC50 (KNS-81-FD) greater than 16 µM and an IC50 (L-540) of 1.06 µM. It also gave an IC50 (LAMA-84) of 9.21 µM, an IC50 (LAN-6) greater than 16 µM and an IC50 (LB996-RCC) greater than 16 µM. The IC50 (LU-165) was greater than 16 µM, the IC50 (NALM-6) was 0.206 µM and the IC50 (NCCIT) was greater than 16 µM. It also gave an IC50 (NCI-H1092) greater than 16 µM, an IC50 (NCI-H1304) of 2.3 µM and an IC50 (NCI-H1417) of 4.61 µM. For the same molecule, the IC50 (NCI-H1436) was greater than 16 µM, the IC50 (NCI-H1648) was greater than 16 µM and the IC50 (NCI-H187) was 0.674 µM. The IC50 (NCI-H2141) was 8.52 µM, the IC50 (NCI-H2171) was greater than 16 µM and the IC50 (NCI-H2405) was 2.44 µM. For the same molecule, the IC50 (NCI-H345) was greater than 16 µM, the IC50 (NCI-H524) was greater than 16 µM and the IC50 (NCI-H716) was greater than 16 µM. For the same molecule, the IC50 (NCI-H748) was 0.871 µM, the IC50 (NCI-H810) was 1.58 µM and the IC50 (NCI-H82) was greater than 16 µM. For the same molecule, the IC50 (NCI-H889) was greater than 16 µM, the IC50 (SNU-16) was greater than 16 µM and the IC50 (NOMO-1) was 2.19 µM. For the same molecule, the IC50 (OAW-28) was 2.15 µM, the IC50 (Panc1005) was 2.89 µM and the IC50 (RPMI-6666) was 1.03 µM. For the same molecule, the IC50 (RPMI 8402) was 0.271 µM, the IC50 (SCLC-21H) was greater than 16 µM and the IC50 (SJRH30) was 4.72 µM. It also gave an IC50 (SNU-C1) greater than 16 µM, an IC50 (SR) of 0.443 µM and an IC50 (SW872) of 0.64 µM. The IC50 (SAOS-2) was greater than 16 µM, the IC50 (23132-87) was 0.501 µM and the IC50 (8505C) was 0.693 µM. For the same molecule, the IC50 (A704) was greater than 16 µM, the IC50 (ARH-77) was 2.19 µM and the IC50 (BL-41) was 2.08 µM. The IC50 (CAL-148) was 0.625 µM, the IC50 (CAL-33) was 0.686 µM and the IC50 (CAL-62) was 0.851 µM. The IC50 (TE-441-T) was greater than 16 µM and the IC50 (CMK) was 2.68 µM.

Cn1cncc1[C@@](N)(c1ccc(Cl)cc1)c1ccc2c(c1)c(-c1cccc(Cl)c1)cc(=O)n2C [TIPIFARNIB] gave an IC50 (COR-L279) of 7.95 µM, an IC50 (CPC-N) of 14.8 µM and an IC50 (DU-145) of 8.66 µM. For the same molecule, the IC50 (HN) was greater than 16 µM, the IC50 (IST-SL2) was 13.3 µM and the IC50 (JIYOYE) was 9.18 µM. The IC50 (KNS-81-FD) was 11.2 µM, the IC50 (L-540) was 4.83 µM and the IC50 (LAMA-84) was 6.42 µM. It also gave an IC50 (LAN-6) of 14.1 µM, an IC50 (LB996-RCC) of 7.69 µM and an IC50 (LU-165) greater than 16 µM. The IC50 (NALM-6) was 0.0362 µM, the IC50 (NCCIT) was 1.28 µM and the IC50 (NCI-H1092) was greater than 16 µM. The IC50 (NCI-H1304) was greater than 16 µM, the IC50 (NCI-H1417) was greater than 16 µM and the IC50 (NCI-H1436) was greater than 16 µM. For the same molecule, the IC50 (NCI-H1648) was 2.56 µM, the IC50 (NCI-H187) was greater than 16 µM and the IC50 (NCI-H2141) was greater than 16 µM. For the same molecule, the IC50 (NCI-H2171) was 3.55 µM, the IC50 (NCI-H2405) was 9.6 µM and the IC50 (NCI-H345) was greater than 16 µM. For the same molecule, the IC50 (NCI-H524) was greater than 16 µM, the IC50 (NCI-H716) was greater than 16 µM and the IC50 (NCI-H748) was greater than 16 µM. The IC50 (NCI-H810) was 1.63 µM, the IC50 (NCI-H82) was 9.1 µM and the IC50 (NCI-H889) was greater than 16 µM. For the same molecule, the IC50 (SNU-16) was greater than 16 µM, the IC50 (NOMO-1) was greater than 16 µM and the IC50 (OAW-28) was greater than 16 µM. For the same molecule, the IC50 (Panc1005) was 5.05 µM, the IC50 (RPMI-6666) was less than 0.0625 µM and the IC50 (RPMI 8402) was 1.28 µM. The IC50 (SCLC-21H) was greater than 16 µM, the IC50 (SJRH30) was 8.71 µM and the IC50 (SNU-C1) was greater than 16 µM. The IC50 (SR) was 1.79 µM, the IC50 (SW872) was 1.45 µM and the IC50 (SAOS-2) was greater than 16 µM. For the same molecule, the IC50 (23132-87) was 6.7 µM, the IC50 (8505C) was 0.431 µM and the IC50 (A704) was greater than 16 µM. The IC50 (ARH-77) was greater than 16 µM, the IC50 (BL-41) was 2.77 µM and the IC50 (CAL-148) was 0.884 µM. It also gave an IC50 (CAL-33) of 3.68 µM, an IC50 (CAL-62) of 1.79 µM and an IC50 (TE-441-T) greater than 16 µM. For the same molecule, the IC50 (CMK) was 0.151 µM.
